pIC50: −log10 of the molar value. Active and inactive are the calls of the source.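 How the source made its calls: active means compounds whose fitted half-maximal concentration in the cell-protection dose series is at or below a set limit; inactive means the rest.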
What follows are compounds tested on H9c2 cardiomyocytes, 2-deoxyglucose stress, ATP luminescence, 2 h (assay: H9c2 cell survival under 2-deoxyglucose stress – uHTS hits, dose response (AID 588780)).
With `CC(=O)c1cccc(NC(=O)C(C)OC(=O)CCc2nc3ccccc3c(=O)[nH]2)c1` (stereo unspecified) the IC50 was > 79 µM (inactive). For `CC(C)n1nc(C(=O)OCC(=O)c2c[nH]c3ccccc23)c2ccccc2c1=O`, the IC50 was > 79 µM (inactive). For `CC(Oc1ccc(F)cc1)C(=O)Nc1nc(-c2ccccn2)cs1` (stereo unspecified), the IC50 was 37.5 µM (inactive). `O=C1c2ccccc2NC(c2ccc(-c3ccc(Br)cc3)o2)N1O` (stereo unspecified) showed a pIC50 of 4.72. With `NS(=O)(=O)c1ccc(CCNC(=O)c2ccc(C#CC3(O)CCCCC3)cc2)cc1` the IC50 was > 79 µM (inactive). In the case of `O=c1[nH]c2cccnc2c2ccsc12`, the IC50 was > 79 µM (inactive). `N#Cc1ccc(OCC(=O)Nc2nc(-c3ccccn3)cs2)cc1` was tested, and the IC50 was > 79 µM (inactive). In the case of `O=C(COC(=O)CCc1nc2ccccc2c(=O)[nH]1)Nc1ccc2c(c1)OCO2`, the IC50 was > 79 µM (inactive). For `Cc1nc(SCC(=O)NCc2ccc(F)cc2)c2c(=O)n(C)c(=O)n(C)c2n1`, the IC50 was > 79 µM (inactive). `CCOc1ccccc1C(=O)N/N=C/c1cccc2cccnc12` was tested, and the IC50 was > 79 µM (inactive). In the case of `COc1cccc(/C=N/Nc2nc3ccccc3n3cnnc23)c1`, the IC50 was > 79 µM (inactive). In the case of `COc1ccc(C(C(=O)NCc2ccccc2)N(Cc2cccs2)C(=O)c2cnccn2)cc1` (stereo unspecified), the pIC50 was 4.79. With `Cc1nn(-c2ccccc2)nc1C(=O)Nc1cccc(C(=O)NC2CC2)c1` the IC50 was > 79 µM (inactive). With `CC(=O)NCCNc1nc2c(-c3ccccc3)nnn2c2ccccc12` the IC50 was > 79 µM (inactive). With `CCOc1ccc(CC(=O)Nc2c(C(N)=O)oc3ccc(Br)cc23)cc1OCC` the IC50 was > 79 µM (inactive). With `CCOCCn1ccc2c(OCC(=O)Nc3cc(OC)ccc3OC)cccc2c1=O` the IC50 was > 79 µM (inactive). With `COc1ccc(C(C)=O)cc1COC(=O)Cc1n[nH]c(=O)c2ccccc12` the IC50 was > 79 µM (inactive). With `Cc1ccc(C)c(S(=O)(=O)N2CCN(C(=O)CCc3nc4ccccc4c(=O)[nH]3)CC2)c1` the IC50 was > 79 µM (inactive). `O=c1[nH]c2cc(F)ccc2c2ccc(F)cc12` was tested, and the IC50 was 73.6 µM (inactive). For `CCN(CC(=O)Nc1cc(Cl)ccc1C)C(=O)CCc1nc2ccccc2c(=O)[nH]1`, the IC50 was > 79 µM (inactive). For `CNS(=O)(=O)c1cc2c3c(cccc3c1)C(=O)NC2=O`, the IC50 was > 79 µM (inactive). `COc1ccc(-c2cc(C(=O)Nc3ccccc3N3CCOCC3)c3ccccc3n2)cc1OC` was tested, and the IC50 was > 79 µM (inactive). `O=C(CN1C(=O)C2CC=CCC2C1=O)Nc1nc(-c2ccc(F)cc2)cs1` (stereo unspecified) was tested, and the pIC50 was 4.97. With `CSc1nsc(SC)c1C(=O)N1CCN(S(=O)(=O)c2ccc(C)cc2)C1C(C)C` (stereo unspecified) the pIC50 was 4.66. For `CCOC(=O)CNC(=O)CSc1nc2nc(C)c(Br)cc2[nH]1`, the IC50 was > 79 µM (inactive). `COc1cccc(-c2cnc3c(NC(C)=O)cc(-c4cccc(NS(C)(=O)=O)c4)cn23)c1` was tested, and the IC50 was > 79 µM (inactive). In the case of `O=C(Nc1nc(-c2ccccn2)cs1)c1ccccc1-n1cnnn1`, the IC50 was > 79 µM (inactive). Compound `CCOc1cc(/C=C/c2ccc3cccc([N+](=O)[O-])c3n2)ccc1OCC(=O)N(C)C` has a pIC50 of 4.90. `COc1ccc(-c2csc(NC(=O)c3ccc(OCC(=O)N4CCOCC4)c(OC)c3)n2)cc1OC` was tested, and the IC50 was > 79 µM (inactive). `COc1cc(/C=C/c2nc3ccccc3c(=O)n2-c2ccccc2O)ccc1O` was tested, and the pIC50 was 4.69. With `O=C(NCc1ccc2c(c1)OCO2)c1n[nH]c(=O)c2ccccc12` the IC50 was > 79 µM (inactive). `CC(OC(=O)Cn1[nH]c(=O)c2ccccc2c1=O)C(=O)Nc1ccc(F)cc1Cl` (stereo unspecified) was tested, and the IC50 was > 79 µM (inactive). `CSc1nc2ncc3c(n2n1)CC1c2ccccc2CCN1C3=O` (stereo unspecified) was tested, and the IC50 was > 79 µM (inactive). In the case of `O=c1c2ccccc2nc(CSc2ncnc3nc[nH]c23)n1-c1ccc(Cl)c(Cl)c1`, the IC50 was > 79 µM (inactive). For `CCOC(=O)c1cc2c(=O)n3cccc(C)c3nc2n(CCCOC)c1=NC(=O)c1cccnc1`, the IC50 was > 79 µM (inactive). For `Cc1ccc(OCC(=O)NCc2n[nH]c(=O)c3ccccc23)cc1`, the IC50 was > 79 µM (inactive). With `CC(OC(=O)Cc1n[nH]c(=O)c2ccccc12)C(=O)Nc1ccc(Cl)cn1` (stereo unspecified) the IC50 was > 79 µM (inactive). With `O=C(N/N=C/c1ccccn1)c1cccc([N+](=O)[O-])c1` the IC50 was > 79 µM (inactive). `O=C(CSc1nc2ccccc2c(=O)[nH]1)c1ccc(O)cc1O` was tested, and the IC50 was 33.1 µM (inactive). In the case of `Cc1[nH]c2ccccc2c1/C=N/NC(=O)c1cccs1`, the IC50 was 40.2 µM (inactive). In the case of `O=S(=O)(c1ccccc1)N1CCN(c2nc(-c3cccnc3)nc3ccccc23)CC1`, the pIC50 was 4.91. `COc1ccc(OCC(O)Cn2c(Br)nc3c2c(=O)[nH]c(=O)n3C)cc1` (stereo unspecified) was tested, and the IC50 was 38.7 µM (inactive). `Cc1cccc(OCCn2nc(C(=O)O)c3ccccc3c2=O)c1` was tested, and the IC50 was > 79 µM (inactive). For `CCN(c1ccc(NC(=O)COC(=O)c2ccc([N+](=O)[O-])o2)cc1)C(C)C`, the IC50 was > 79 µM (inactive). For `CC(=O)Nc1cccc(NC(=O)CSc2ccc(-c3ccccn3)nn2)c1`, the IC50 was > 79 µM (inactive). For `CCSc1nnc(NC(=O)C2Cc3ccccc3CN2S(=O)(=O)CC)s1` (stereo unspecified), the IC50 was 43.6 µM (inactive). `O=c1[nH]c(N2CCN(c3ccccc3)CC2)nc2c1CCCC2` was tested, and the IC50 was > 79 µM (inactive). In the case of `Cc1ccc2cc3c(NC(=O)c4cccnc4)nn(C)c3nc2c1`, the IC50 was > 79 µM (inactive). For `Cc1cccc(N2CCN(C(=O)CCc3nc4ccccc4c(=O)[nH]3)CC2)c1C`, the IC50 was > 79 µM (inactive). For `CN(C)S(=O)(=O)n1cc(/C=C(\NC(=O)c2ccccc2F)C(=O)NCCN2CCOCC2)c2ccccc21`, the IC50 was > 79 µM (inactive). `C[C@H](CO)N1C[C@H](C)[C@@H](CN(C)S(=O)(=O)c2ccccc2)Oc2ccc(NC(=O)Nc3ccccc3)cc2C1=O` gave a pIC50 of 4.62. `COc1cc(OC)cc(C(=O)NNC(=O)c2ccccn2)c1` was tested, and the IC50 was > 79 µM (inactive). For `Cc1ccc(C)c(NC(=O)C(Sc2ncnc3ccccc23)c2ccccc2)c1` (stereo unspecified), the IC50 was > 79 µM (inactive). `CCOc1ccc2[nH]c(=O)c(CN(CCO)C3(c4nnnn4C4CCCCC4)CCCCC3)cc2c1` was tested, and the IC50 was 35.1 µM (inactive). For `O=C1NC(Cc2ccc(O)cc2)c2nc3ccc(F)cc3c(=O)n2-c2cc3ccccc3cc21` (stereo unspecified), the pIC50 was 4.91. Compound `COc1ccnc(Oc2ccc(F)cc2)c1C(=O)N/C=N/OCc1ccc(Cl)cc1Cl` has a pIC50 of 4.91. In the case of `Cc1cc(Nc2ccccc2C(=O)O)nc2nc3ccccc3c(=O)n12`, the IC50 was > 79 µM (inactive). Work on `COc1cc(-c2cc(C(=O)OCC(=O)NC3CC3)c3ccccc3n2)cc(OC)c1OC` yielded a pIC50 of 4.97. With `COc1cc(CCNc2ccc3nnc(-c4ccccc4)n3n2)cc(OC)c1OC` the pIC50 was 4.62. With `CN(CC(=O)Nc1cccc(F)c1)C(=O)CCc1nc2ccccc2c(=O)[nH]1` the IC50 was > 79 µM (inactive). `O=C(/C=C/NNC(=O)c1ccccc1)c1ccc(Br)cc1` was tested, and the IC50 was > 79 µM (inactive). In the case of `COCc1c(C(=O)Nc2ccc3nc(N4CCOCC4)sc3c2)oc2ccccc12`, the IC50 was > 79 µM (inactive). `O=C(NCc1ccco1)c1cnn2c(C(F)(F)F)cc(-c3cccs3)nc12` was tested, and the IC50 was > 79 µM (inactive). With `COC(=O)c1cc(OC)c(OC)cc1NC(=O)c1ccc(C)o1` the pIC50 was 4.59. In the case of `Oc1ccc(Br)cc1C=Nc1ccc2[nH]ncc2c1`, the IC50 was > 79 µM (inactive). In the case of `COc1ccccc1NC(=O)COc1cccc2c1CCNC2=O`, the IC50 was > 79 µM (inactive). `COc1ccc(S(=O)(=O)N2CCOCC2)cc1NC(=O)c1cccc2c(=O)c(C)c(-c3ccccc3)oc12` showed a pIC50 of 4.74. `Cn1c(-c2ccc(Cl)cc2)cnc1N` was tested, and the IC50 was > 79 µM (inactive). In the case of `COCCCNC(=O)/C(C#N)=C1\N=C(NC(=O)c2cccs2)c2ccccc21`, the IC50 was > 79 µM (inactive). `O=C(COc1ccccc1F)Nc1nc(-c2ccccn2)cs1` was tested, and the IC50 was > 79 µM (inactive). `C=CC[C@@H](CC(=O)N[C@H](CO)Cc1ccccc1)C(=O)N[C@@H](COC(=O)[C@@H](CC=C)CC(=O)OC(C)(C)C)Cc1ccccc1` showed a pIC50 of 4.76. With `COc1cc(NC(=O)c2cc3c(C)nc4ccccc4c3o2)cc(OC)c1OC` the IC50 was > 79 µM (inactive). In the case of `COc1nc(N/N=C/c2cc3c(cc2Br)OCO3)nc(N2CCOCC2)n1`, the pIC50 was 4.80. For `O=C1NC(c2cccs2)Nc2ccccc21` (stereo unspecified), the IC50 was > 79 µM (inactive). `CC(C)(C)NC(=O)c1cccc(NC(=O)c2ccc(NC(=O)c3ccco3)cc2)c1` gave a pIC50 of 4.81. For `CCOC(=O)CSc1nc2sc(C)c(C)c2c(=O)[nH]1`, the IC50 was > 79 µM (inactive). In the case of `Cc1ccc(C)c(NC(=O)C(Sc2nc3ccccc3c(=O)n2CC(C)C)c2ccccc2)c1` (stereo unspecified), the IC50 was > 79 µM (inactive). For `CCCCCn1c(=O)c(C(=O)NCc2ccccn2)c(O)c2ccccc21`, the pIC50 was 5.11. In the case of `Nc1c(C(=O)N/N=C/c2cccnc2)oc2nc(-c3ccccc3)cc(-c3ccco3)c12`, the IC50 was > 79 µM (inactive). `CC(C)C1Nc2ccc(C(=O)N3CCN(c4ccccn4)CC3)cc2NC1=O` (stereo unspecified) was tested, and the IC50 was > 79 µM (inactive). In the case of `COC(=O)c1ccccc1NC(=O)/C=C/c1cc(OC)c(OC)c(OC)c1`, the pIC50 was 4.64. In the case of `CCn1nc(C(=O)Nc2nc(-c3ccccn3)cs2)c2ccccc2c1=O`, the IC50 was > 79 µM (inactive). `COc1cc(/C=C/C(=O)Nc2ccc3nc4n(c(=O)c3c2)CCCC4)cc(OC)c1OC` was tested, and the pIC50 was 4.62. With `COc1cccc(N2CC(C(=O)NCc3n[nH]c(=O)c4ccccc34)CC2=O)c1` (stereo unspecified) the IC50 was > 79 µM (inactive). For `CCOC(=O)C1=C(COC(=O)c2ccc([N+](=O)[O-])o2)NC(=O)NC1C` (stereo unspecified), the IC50 was > 79 µM (inactive). In the case of `O=C(CSc1nc2ccccc2o1)NCc1n[nH]c(=O)c2ccccc12`, the pIC50 was 4.86. In the case of `CCOC(=O)COc1cccc(C2NC(=O)c3ccccc3O2)c1` (stereo unspecified), the IC50 was > 79 µM (inactive). In the case of `CCOC(=O)C1CCN(c2cc3c(cc2NC(=O)c2ccccc2Br)n(C)c(=O)n3C)CC1`, the IC50 was 45.5 µM (inactive). `CC(=O)Nc1ccc(C(=O)N/N=C/c2ccccc2OC(=O)c2ccc(Cl)cc2)cc1` gave a pIC50 of 4.94. For `CCCN(CC(=O)Nc1ccc(F)c(F)c1F)C(=O)CCc1nc2ccccc2c(=O)[nH]1`, the IC50 was > 79 µM (inactive). For `CCc1ccc(C(C)NC(=O)c2cc(C)oc2C)cc1` (stereo unspecified), the IC50 was > 79 µM (inactive). For `O=C(CCc1nc2ccccc2c(=O)[nH]1)N1CCN(c2ccccc2Cl)CC1`, the IC50 was > 79 µM (inactive). In the case of `CCOC(=O)c1c(C)[nH]c(C)c1C(=O)COc1ncnc2cc([N+](=O)[O-])ccc12`, the pIC50 was 4.84. For `COc1cccc(CN2CCN(C(=O)c3cc(-c4cccnc4)nc4ccc(C)cc34)CC2)c1`, the pIC50 was 4.65. For `CCOC(=O)c1c(NC(=O)COC(=O)c2ccc(O)cc2)sc(C(=O)N(C)C)c1C`, the IC50 was > 79 µM (inactive). For `Cc1ccc(N=Cc2cc(Br)cc(Cl)c2O)cc1`, the IC50 was > 79 µM (inactive).
